Reference: ChEMBL document CHEMBL1201862, “PubChem BioAssay data set” (2004)
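These data come from cells grown in 96-well plates and exposed to compound for 48 hours at five concentrations. GI50: concentration for 50% inhibition of growth.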 Active and inactive are the calls of the source. No stated cut-off is given here; in the data, active = GI50 up to about 1.1 µM and inactive = higher.

Key:
Assay in all cases: growth of human tumour cells (NCI), 48 h
HT-29 = system: HT-29
HCT-116 = system: HCT-116
SNB-75 = system: SNB-75
OVCAR-3 = system: OVCAR-3
NCI-H522 = system: NCI-H522
A498 = system: A498
UACC-62 = system: UACC-62
NCI/ADR-RES = system: NCI/ADR-RES
OVCAR-5 = system: OVCAR-5
TK-10 = system: TK-10
M14 = system: M14
Malme-3M = system: Malme-3M
SK-MEL-5 = system: SK-MEL-5
DU-145 = system: DU-145
SF-295 = system: SF-295
PC-3 = system: PC-3
SK-MEL-28 = system: SK-MEL-28
RXF 393 = system: RXF 393
OVCAR-4 = system: OVCAR-4
RPMI-8226 = system: RPMI-8226

Compound	GI50 (HT-29)	GI50 (HCT-116)	GI50 (SNB-75)	GI50 (OVCAR-3)	GI50 (NCI-H522)	GI50 (A498)	GI50 (UACC-62)	GI50 (NCI/ADR-RES)	GI50 (OVCAR-5)	GI50 (TK-10)	GI50 (M14)	GI50 (Malme-3M)	GI50 (SK-MEL-5)	GI50 (DU-145)	GI50 (SF-295)	GI50 (PC-3)	GI50 (SK-MEL-28)	GI50 (RXF 393)	GI50 (OVCAR-4)	GI50 (RPMI-8226)
CN(C)CCn1c(=O)c2ccc3c4c(nn3CCN(C)C)c3ccccc3n(c1=O)c24	< 0.123 µM (active)	0.193 µM (active)	< 0.0146 µM (active)	0.431 µM (active)	< 0.0219 µM (active)	0.301 µM (active)	0.564 µM (active)	0.368 µM (active)	0.485 µM (active)	0.578 µM (active)	0.411 µM (active)	0.887 µM (active)	0.728 µM (active)	0.208 µM (active)	0.0292 µM (active)	0.351 µM (active)	1.85 µM (inactive)	0.275 µM (active)	0.141 µM (active)	
NCCN1C(=O)CN=C(c2ccc(Cl)cc2)c2cc(Cl)ccc21	16.8 µM (inactive)	16.2 µM (inactive)	14.9 µM (inactive)	15.5 µM (inactive)	16.1 µM (inactive)	19.1 µM (inactive)	17.9 µM (inactive)	15.9 µM (inactive)	15.7 µM (inactive)	16.1 µM (inactive)	16.1 µM (inactive)	14.2 µM (inactive)	16.9 µM (inactive)	17.1 µM (inactive)	32.8 µM (inactive)	14.8 µM (inactive)	> 100 µM (inactive)	11.5 µM (inactive)	16.2 µM (inactive)	17.6 µM (inactive)
COc1ccccc1N1C(=O)CSC1c1cc(OC)c(OC)c(OC)c1 (centres undefined)	> 100 µM (inactive)	13.3 µM (inactive)	> 100 µM (inactive)	> 46.3 µM (inactive)	17.7 µM (inactive)	> 100 µM (inactive)	20.5 µM (inactive)	69.8 µM (inactive)	> 100 µM (inactive)	> 100 µM (inactive)	> 88.5 µM (inactive)	> 22.3 µM (inactive)	25.5 µM (inactive)	> 100 µM (inactive)	> 30.4 µM (inactive)	> 78.2 µM (inactive)	> 89.9 µM (inactive)	> 52.1 µM (inactive)	> 77.8 µM (inactive)	16.6 µM (inactive)
COC(=O)c1ccc2n1C1CC3CC(CC2C3)C1	31.5 µM (inactive)	42.6 µM (inactive)	> 100 µM (inactive)	> 100 µM (inactive)	> 100 µM (inactive)	> 100 µM (inactive)	41.2 µM (inactive)	> 100 µM (inactive)	> 100 µM (inactive)	> 100 µM (inactive)	> 100 µM (inactive)	> 100 µM (inactive)	30.9 µM (inactive)	> 100 µM (inactive)	> 100 µM (inactive)	40 µM (inactive)	> 100 µM (inactive)	21.5 µM (inactive)	> 100 µM (inactive)	42.8 µM (inactive)
COC(=O)Nc1nc2cc(NC(=O)c3ccc(I)cc3)ccc2[nH]1	> 100 µM (inactive)	> 100 µM (inactive)	96.8 µM (inactive)	> 100 µM (inactive)	24.7 µM (inactive)	> 100 µM (inactive)	> 100 µM (inactive)	> 100 µM (inactive)	> 100 µM (inactive)	> 100 µM (inactive)	> 100 µM (inactive)	72.6 µM (inactive)	> 100 µM (inactive)	> 100 µM (inactive)	> 100 µM (inactive)	> 100 µM (inactive)	> 100 µM (inactive)	> 100 µM (inactive)	> 100 µM (inactive)	> 100 µM (inactive)
O=C1/C(=C2/C(=O)N(c3ccccc3)c3ccccc32)Nc2ccccc21	59 µM (inactive)	36.6 µM (inactive)	14.9 µM (inactive)	52 µM (inactive)	66.5 µM (inactive)	24.5 µM (inactive)	> 100 µM (inactive)	> 100 µM (inactive)	51.1 µM (inactive)	27 µM (inactive)	38.1 µM (inactive)	73.1 µM (inactive)	22.3 µM (inactive)	27 µM (inactive)	48.4 µM (inactive)	26.7 µM (inactive)	> 100 µM (inactive)	15 µM (inactive)	25.5 µM (inactive)	> 100 µM (inactive)
O=C1C2=Cc3ccccc3CCN2c2ccc([N+](=O)[O-])cc21	> 100 µM (inactive)	> 100 µM (inactive)	> 100 µM (inactive)	44.2 µM (inactive)	24 µM (inactive)	35.9 µM (inactive)	55.5 µM (inactive)	24 µM (inactive)	> 100 µM (inactive)	83 µM (inactive)	> 100 µM (inactive)	32.7 µM (inactive)	21.9 µM (inactive)	96.2 µM (inactive)	36.6 µM (inactive)	> 100 µM (inactive)	> 100 µM (inactive)	> 100 µM (inactive)	> 100 µM (inactive)	> 100 µM (inactive)
Cc1c(C#N)c2nnn(-c3ccc([N+](=O)[O-])cc3)c(=O)n2c1-c1ccccc1	8.53 µM (inactive)	6.62 µM (inactive)	19.8 µM (inactive)	3.03 µM (inactive)	3.77 µM (inactive)	5.64 µM (inactive)	6.19 µM (inactive)	4.86 µM (inactive)	17.1 µM (inactive)	20 µM (inactive)	11.4 µM (inactive)	14.7 µM (inactive)	12.6 µM (inactive)	9.44 µM (inactive)	3.57 µM (inactive)	4.26 µM (inactive)	19.2 µM (inactive)	16.5 µM (inactive)	8.04 µM (inactive)	3.13 µM (inactive)
C=CCN1C(=O)CS/C1=N\NC(=O)CSc1nc2ccccc2c(=O)n1CC	> 100 µM (inactive)	> 100 µM (inactive)	> 100 µM (inactive)	> 100 µM (inactive)	> 100 µM (inactive)	35 µM (inactive)	92 µM (inactive)	> 100 µM (inactive)	84.1 µM (inactive)	> 100 µM (inactive)	> 100 µM (inactive)	> 100 µM (inactive)	> 100 µM (inactive)	> 100 µM (inactive)	> 100 µM (inactive)	> 100 µM (inactive)	> 100 µM (inactive)	> 100 µM (inactive)	> 100 µM (inactive)	> 100 µM (inactive)
COc1cc2c(SCCN(C)C)nc3ccccc3c2c2ccccc12	2.64 µM (inactive)	1.67 µM (inactive)	2.51 µM (inactive)	2.34 µM (inactive)	1.68 µM (inactive)	10.7 µM (inactive)	1.63 µM (inactive)	5.38 µM (inactive)	1.64 µM (inactive)	2.7 µM (inactive)	1.68 µM (inactive)	1.82 µM (inactive)	1.83 µM (inactive)	3.71 µM (inactive)	1.77 µM (inactive)	2.22 µM (inactive)	1.78 µM (inactive)	1.93 µM (inactive)	2.62 µM (inactive)	1.76 µM (inactive)
